These results are taken from patent US7902354B2, “Lapachone compounds and methods of use thereof” (ArQule, Inc., priority 2006, dated 2011).

Where a name gives a salt, the structure may show the parent alone.

What is called IC50 is the midpoint of a concentration-inhibition curve. Usually melting point stands for the temperature, or range, at which the solid turns liquid.

In data set [1] the test system is DLD-1 human colon carcinoma cells. As to the kind of experiment: MTS cell viability assay, DLD-1 human colon carcinoma cells. Format: cell-based. The conditions noted are these: DLD-1, 4 h compound incubation, MTS, read-out: IC50 Values, Cancerous Cells, Colon DLD-1. For orientation: Formazan colour is commonly taken as a measure of viable cells.
The test system of data set [2] is DU-145 human prostate carcinoma cells. Description: MTS cell viability assay, DU-145 human prostate carcinoma cells. The conditions noted are these: DU-145, 4 h compound incubation, MTS, read-out: IC50 Values, Cancerous Cells, Prostate DU-145. Format: cell-based.
The subject of data set [3] is NCM-460 normal colon epithelial cells. As to the kind of experiment: MTS cell viability assay, NCM-460 normal colon epithelial cells. Format: cell-based. The conditions noted are these: for IC50: Homo sapiens, NCM460, NCM-460, 4 h compound incubation, MTS, read-out: IC50 Values, Normal Cells, Colon NCM-460; for Fold Selectivity (NCM-460/DLD1): ratio of IC50 NCM-460 / DLD1.

In data set [4] the test system is A549 human lung carcinoma cells. Description: MTS cell viability assay, A549 human lung carcinoma cells. Format: cell-based. The conditions noted are these: A549, 4 h compound incubation, MTS, read-out: IC50 Values, Cancerous Cells, Lung A549.
Data set [5] has as its system PACA-2 human pancreatic carcinoma cells. As to the kind of experiment: MTS cell viability assay, PACA-2 human pancreatic carcinoma cells. In kind it is cell-based. The following applies: PACA-2, 4 h compound incubation, MTS, read-out: IC50 Values, Cancerous Cells, Pancreas PACA-2.
In data set [6] the test system is K-562 human leukemia cells. Description: MTS cell viability assay, K-562 human leukemia cells. Format: cell-based. The following applies: K562, K-562, 4 h compound incubation, MTS, read-out: IC50 Values, Cancerous Cells, Leukemia K-562.

Consider `COc1ccc2c(c1)C1=C(SCC3(CCNCC3)O1)C(=O)C2=O` [Compound 20, 9-methoxyspiro[naphtho[1,2-b][1,4]oxathiine-2,4′-piperidine]-5,6-dione], for which the IC50 in data set [1] is 49.5 µM; in data set [2], 60.5 µM; in data set [3] it was 61.7 µM; in data set [4], > 100 µM; in data set [5], 27.5 µM; in data set [6] it was 48 µM. Besides, the “Fold Selectivity (NCM-460/DLD1)” value in data set [3] came out at 1.2. As for `O=C1C(=O)c2ccccc2C2=C1SCC1(CCN(CCCOc3ccccc3)CC1)O2` [Compound 144, 1′-(3-phenoxypropyl)spiro[naphtho[1,2-b][1,4]oxathiine-2,4′-piperidine]-5,6-dione], the IC50 in data set [1] came out at 2.17 µM; in data set [2], 4.91 µM; in data set [3], 9.9 µM; in data set [4], 8.19 µM; in data set [5] it was 2.82 µM; in data set [6], 4.32 µM. The “Fold Selectivity (NCM-460/DLD1)” value in data set [3] was determined as 4.6. For the compound `O=C1C(=O)c2ccccc2C2=C1SCC1(CCN(C(=O)C3CCC3C(=O)O)CC1)O2` (centres unmarked) [Compound 235, 2-[(5,6-dioxo-5,6-dihydro-1′H-spiro[naphtho[1,2-b][1,4]oxathiine-2,4′-piperidin]-1′-yl)carbonyl]cyclobutanecarboxylic acid], the IC50 in data set [1] was 69.6 µM; in data set [2] it was 54.4 µM; in data set [3], 85.8 µM; in data set [4], > 100 µM; in data set [5], 48.5 µM; in data set [6], 52.4 µM. In addition, in data set [3], the “Fold Selectivity (NCM-460/DLD1)” value is listed as 1.2. In turn, `O=C1C(=O)c2ccccc2C2=C1SCC1(CCN(CCCCc3ccccc3)CC1)O2` showed a melting point of 145 to 147 °C.

As for `Cl.Cl.O=C1C(=O)c2ccc(N3CCOCC3)cc2C2=C1SCC1(CCNCC1)O2`, the melting point is > 300 °C.

`COc1ccc2c(c1)C1=C(SCC3(CCN(Cc4ccc(F)cc4)CC3)O1)C(=O)C2=O` came in with a melting point of 196 to 197 °C. Turning to `COC(=O)Cc1ccc(OC[C@H](O)CN2CCC3(CC2)CSC2=C(O3)c3ccccc3C(=O)C2=O)cc1`, the melting point was in the range of 122 to 124 °C. The compound `COc1ccc2c(c1)C(=O)C(=O)C1=C2OC2(CCN(C(=O)Oc3cccc(C(F)(F)F)c3)CC2)CS1` returned a melting point of 233 to 234 °C. As to `CC(C)N1CCC2(CC1)CSC1=C(O2)c2ccccc2C(=O)C1=O`, the melting point lay within 197 to 198 °C. As for `NC(=O)N1CCC2(CC1)CSC1=C(O2)c2ccccc2C(=O)C1=O`, the melting point was 218 to 220 °C. Consider `COc1ccc2c(c1)C(=O)C(=O)C1=C2OC2(CCN(C(=O)c3cccc(Cl)c3)CC2)CS1`, for which the melting point was 130 °C (dec.). For `CC(C)(C)OC(=O)N1CCC(CC(=O)N2CCC3(CC2)CSC2=C(O3)c3ccccc3C(=O)C2=O)CC1`, the melting point was in the range of 110 to 113 °C.

The compound `O=C1C(=O)c2ccccc2C2=C1SCC1(CCN(c3cc(Cl)ncn3)CC1)O2` displayed a melting point of 172 to 174 °C.

Compound `COc1ccc2c(c1)C1=C(SCC3(CCN(C[C@H](O)Cc4ccccc4)CC3)O1)C(=O)C2=O` registered a melting point of 106 °C. `O=C1C(=O)c2ccccc2C2=C1SCC1(CCCN(C[C@H](O)Cc3ccccc3)C1)O2` (some centres unmarked): the melting point is 65 to 67 °C.

`COc1ccc2c(c1)C(=O)C(=O)C1=C2OC2(CCN(C[C@@H](O)Cc3ccccc3)CC2)CS1` registered a melting point of 146 to 147 °C. Consider `O=C1C(=O)c2ccc(-c3ccccc3)cc2C2=C1SCC1(CCN(C[C@H](O)COc3ccc(Cl)cc3)CC1)O2`, for which the melting point is 93 to 98 °C. The compound `COc1ccc2c(c1)C(=O)C(=O)C1=C2OC2(CCN(Cc3ccc(F)cc3)CC2)CS1` yielded a melting point of 219 to 221 °C. `O=C1C(=O)c2ccccc2C2=C1SCC1(CCCN(C(=O)Oc3cccc(C(F)(F)F)c3)CC1)O2` (centres unmarked) came in with a melting point of 111 to 114 °C. Regarding `CC(C)(C)OC(=O)N1CCC2(CC1)CSC1=C(O2)c2cc(-c3ccc(C(F)(F)F)cc3)ccc2C(=O)C1=O`, the melting point lay within 238 to 240 °C. Same read-out and setting: in the case of `O=C1C(=O)c2ccc(Br)cc2C2=C1SCC1(CCN(C[C@H](O)Cc3ccccc3)CC1)O2` it was 82 to 84 °C. Turning to `O=C1C(=O)c2ccccc2C2=C1SCC1(CCN(C3CCCC3O)CC1)O2` (centres unmarked), the melting point lay in the range of 110 to 113 °C.

With `O=C1C(=O)c2ccccc2C2=C1SCC1(CCN(C(=O)c3cccc([N+](=O)[O-])c3)CC1)O2`, the melting point fell in the range of 160 to 162 °C.

Compound `O=C1C(=O)c2ccccc2C2=C1SCC1(CCN(CC3CCCO3)CC1)O2` (centres unmarked) had a melting point of 155 to 159 °C. Compound `O=C1C(=O)c2ccc(-c3ccccc3C(F)(F)F)cc2C2=C1SCC1(CCNCC1)O2` returned a melting point of 125 to 127 °C.

`COc1ccc2c(c1)C1=C(SCC3(CCN(C[C@H](O)COc4ccc(C(C)(C)C)cc4)CC3)O1)C(=O)C2=O` gave a melting point of 153 to 156 °C. Take `O=C1C(=O)c2ccccc2C2=C1SCC1(CCCN(C[C@@H](O)Cc3ccccc3)C1)O2` (some centres unmarked): the melting point is 59 to 60 °C. On to `CC(C)(C)OC(=O)N1CCC2(CC1)CSC1=C(O2)c2cc(-c3ccncc3)ccc2C(=O)C1=O`, for which the melting point lay within 225 to 227 °C.

The compound `O=C1C(=O)c2ccc(-c3cccnc3)cc2C2=C1SCC1(CCN(C(=O)c3cccc(Cl)c3)CC1)O2` came in with a melting point of 240 to 242 °C. Same read-out and setting: in the case of `O=C1C(=O)c2ccccc2C2=C1SCC1(CCN(C(=O)c3cn4c5c(cccc35)CCC4)CC1)O2` it was 265 to 267 °C; in that of `O=C1C(=O)c2ccccc2C2=C1SCC1(CCN(C(=O)Cc3ccc(Cl)cc3)CC1)O2`, 120 to 125 °C. Same read-out and setting: under `COc1ccc2c(c1)C(=O)C(=O)C1=C2OC2(CCN(C[C@H](O)Cc3ccccc3)CC2)CS1` stands 145 to 147 °C; under `O=C1C(=O)c2ccc(Br)cc2C2=C1SCC1(CCN(Cc3ccc(F)cc3)CC1)O2`, 210 to 211 °C. `O=C1C(=O)c2ccccc2C2=C1SCC1(CCN(C(=O)c3nc4ccccc4[nH]3)CC1)O2` gave a melting point of 266 to 268 °C. For `CC(C)(C)c1ccc(OC[C@@H](O)CN2CCC(N3CCC4(CC3)CSC3=C(O4)c4ccccc4C(=O)C3=O)CC2)cc1`, the melting point is 190 to 193 °C.

For the compound `O=C1C(=O)c2ccccc2C2=C1SCC1(CCN(CC3CCCCO3)CC1)O2` (centres unmarked), the melting point lay in the range of 135 to 137 °C. Same read-out and setting: in the case of `O=C1C(=O)c2ccc(Cl)cc2C2=C1SCC1(CCN(C(=O)c3cccc(Cl)c3)CC1)O2` it was 125 to 130 °C. Take `Cl.O=C1C(=O)c2ccccc2C2=C1SCC1(CCN(C(=O)C3CCNCC3)CC1)O2`: the melting point was 94 to 100 °C. Compound `O=C1C(=O)c2ccccc2C2=C1SCC1(CCCN(C(=O)Oc3cccc(C(F)(F)F)c3)C1)O2` (centres unmarked) had a melting point of 95 to 99 °C. `O=C1C(=O)c2ccccc2C2=C1SCC1(CCN(C[C@H](O)COc3ccc(C(=O)OCc4ccccc4)cc3)CC1)O2` gave a melting point of 83 to 84 °C. In turn, `O=C1C(=O)c2ccc(-c3ccccc3)cc2C2=C1SCC1(CCN(C(=O)c3cccc(Cl)c3)CC1)O2` registered a melting point of 240 to 241 °C. Compound `COc1ccc2c(c1)C1=C(SCC3(CCN(C[C@@H](O)Cc4ccccc4)CC3)O1)C(=O)C2=O` showed a melting point of 110 °C. The same measure, in the same setting: in the case of `CN(C)S(=O)(=O)N1CCC2(CC1)CSC1=C(O2)c2ccccc2C(=O)C1=O` it was 215 to 218 °C; in that of `O=C1C(=O)c2ccc(F)cc2C2=C1SCC1(CCN(C[C@H](O)Cc3ccccc3)CC1)O2`, 76 to 77 °C; in that of `O=C(NC1CCC2(CC1)CSC1=C(O2)c2ccccc2C(=O)C1=O)Oc1cccc(C(F)(F)F)c1` (centres unmarked) (as salt: hydrochloride), 198 to 199 °C. `O=C1C(=O)c2ccccc2C2=C1SCC1(CCC(NC(=O)c3cccc(C(F)(F)F)c3)CC1)O2` (centres unmarked) (as salt: hydrochloride): the melting point was in the range of 266 to 267 °C. As to `Cl.O=C1C(=O)c2ccccc2C2=C1SCC1(CCN(C(=O)CC3CCNCC3)CC1)O2`, the melting point lay in the range of 200 to 202 °C. `CC(C)(C)OC(=O)NC1CCC2(CC1)CSC1=C(O2)c2ccccc2C(=O)C1=O` (centres unmarked): the melting point is 224 to 225 °C.

In the case of `O=C1C(=O)c2ccc(-c3ccccc3)cc2C2=C1SCC1(CCNCC1)O2`, the melting point was 83 to 87 °C. `O=C1C(=O)c2ccccc2C2=C1SCC1(CCCN(C(=O)c3cccc(Cl)c3)CC1)O2` (centres unmarked) yielded a melting point of 98 to 100 °C. `O=C1C(=O)c2ccccc2C2=C1SCC1(CCN(CCc3ccccc3)CC1)O2` yielded a melting point of 117 to 118 °C. Regarding `O=C1C(=O)c2ccccc2C2=C1SCC1(CCCCC1)O2`, the melting point is 194 to 195 °C.

In turn, `COc1ccc2c(c1)C1=C(SCC3(CCN(C(=O)Oc4cccc(C(F)(F)F)c4)CC3)O1)C(=O)C2=O` gave a melting point of 88 to 89 °C.

As to `Cl.NC1CCC2(CC1)CSC1=C(O2)c2ccccc2C(=O)C1=O` (centres unmarked), the melting point was in the range of 256 to 257 °C.

For `O=C1C(=O)c2ccccc2C2=C1SCC1(CCN(C(=O)NS(=O)(=O)c3ccccc3)CC1)O2`, the melting point is 155 to 165 °C.

Compound `O=C1C(=O)c2ccccc2C2=C1SCC1(CCC(c3ccccc3)CC1)O2` (centres unmarked) had a melting point of 183 to 187 °C. The compound `CC(C)(C)OC(=O)N1CCC2(CC1)CSC1=C(O2)c2cc(-c3cccnc3)ccc2C(=O)C1=O` yielded a melting point of 217 to 219 °C. `O=C1C(=O)c2ccc(-c3cccc(C(F)(F)F)c3)cc2C2=C1SCC1(CCNCC1)O2` returned a melting point of 199 to 203 °C. On to `O=C1C(=O)c2ccc(N3CCCCC3)cc2C2=C1SCC1(CCNCC1)O2`, for which the melting point was 300 °C (dec.).
